Measured values as given in patent publication EP4692094A1 (Beijing Konruns Pharmaceutical Co., Ltd., priority 2023, dated 2024).

biological target: T1, KAT6A (Homo sapiens, UniProt Q92794); experiment: Enzymatic activity assay for KAT6A acetyltransferase (TR-FRET, acetylation of histone substrate H3); format: biochemical
T1 construct: purchased active motife (Active Motif) 81223
Procedure: The acetylation effect of KAT6A on histone substrate H3 was determined using the TR-FRET (time-resolved fluorescence resonance energy transfer) method.
• 1) The compounds prepared in the examples of the present disclosure were each dissolved in dimethylsulfoxide to give solutions at a concentration of 10 mmol/L, and then the solutions were diluted to 0.2 mmol/L, i.e., 1 µL of the compound was added to 49 µL of DMSO, and 3-fold dilution was performed to give 10 concentrations. • 2) 50 nL of the test compounds (example compounds) were transferred to 384 reaction plates using Echo, two replicates for each compound, and the plates were centrifuged at a rotation speed of 1000 rpm for 1 min, the final concentration of dimethylsulfoxide (DMSO) being 0.5%. • 3) 2.5 µL of the reaction mixtures obtained in step 2 was added to the 384 reaction plates in step 2), and the plates were centrifuged at 1000 rpm for 1 min and incubated at 25 °C for 10 min. • 4) 2.5 µL of Bio-H3&AcCOA (acetyl-CoA) reaction solution was added to the 384 reaction plates in step 3), and the plates were centrifuged at a rotation speed of 1000 rpm for 1 min and incubated at 25 °C for 90 min. • 5) 5 µL of Eu-Ab& Ulight-SA detection solution was added to the 384 reaction plates in step 4), and the plates were centrifuged at 1000 rpm for 1 min and incubated at 25 °C for 60 min. • 6) The HTRF […] signals were read using a BMG high-throughput drug-screening multi-mode microplate reader.
The acetylation level of the histone H3 was analyzed by the GraphPad Prism 8 software. The reading of the negative control (0.5% DMSO wells) was set as 0% inhibition rate, and the reading of the positive control (wells with the highest concentration of the control compound) was set as 100% inhibition rate. The inhibition rates were calculated, and then IC50 values (half maximal inhibitory concentration) of test compounds were obtained by using a software nonlinear fitting formula; [formula]
Datapositive control: mean of positive control well values; Datanegative control: mean of negative control well values. Table 3. Enzymatic inhibitory activity of example compounds

T1 sequence (Q92794 whole entry): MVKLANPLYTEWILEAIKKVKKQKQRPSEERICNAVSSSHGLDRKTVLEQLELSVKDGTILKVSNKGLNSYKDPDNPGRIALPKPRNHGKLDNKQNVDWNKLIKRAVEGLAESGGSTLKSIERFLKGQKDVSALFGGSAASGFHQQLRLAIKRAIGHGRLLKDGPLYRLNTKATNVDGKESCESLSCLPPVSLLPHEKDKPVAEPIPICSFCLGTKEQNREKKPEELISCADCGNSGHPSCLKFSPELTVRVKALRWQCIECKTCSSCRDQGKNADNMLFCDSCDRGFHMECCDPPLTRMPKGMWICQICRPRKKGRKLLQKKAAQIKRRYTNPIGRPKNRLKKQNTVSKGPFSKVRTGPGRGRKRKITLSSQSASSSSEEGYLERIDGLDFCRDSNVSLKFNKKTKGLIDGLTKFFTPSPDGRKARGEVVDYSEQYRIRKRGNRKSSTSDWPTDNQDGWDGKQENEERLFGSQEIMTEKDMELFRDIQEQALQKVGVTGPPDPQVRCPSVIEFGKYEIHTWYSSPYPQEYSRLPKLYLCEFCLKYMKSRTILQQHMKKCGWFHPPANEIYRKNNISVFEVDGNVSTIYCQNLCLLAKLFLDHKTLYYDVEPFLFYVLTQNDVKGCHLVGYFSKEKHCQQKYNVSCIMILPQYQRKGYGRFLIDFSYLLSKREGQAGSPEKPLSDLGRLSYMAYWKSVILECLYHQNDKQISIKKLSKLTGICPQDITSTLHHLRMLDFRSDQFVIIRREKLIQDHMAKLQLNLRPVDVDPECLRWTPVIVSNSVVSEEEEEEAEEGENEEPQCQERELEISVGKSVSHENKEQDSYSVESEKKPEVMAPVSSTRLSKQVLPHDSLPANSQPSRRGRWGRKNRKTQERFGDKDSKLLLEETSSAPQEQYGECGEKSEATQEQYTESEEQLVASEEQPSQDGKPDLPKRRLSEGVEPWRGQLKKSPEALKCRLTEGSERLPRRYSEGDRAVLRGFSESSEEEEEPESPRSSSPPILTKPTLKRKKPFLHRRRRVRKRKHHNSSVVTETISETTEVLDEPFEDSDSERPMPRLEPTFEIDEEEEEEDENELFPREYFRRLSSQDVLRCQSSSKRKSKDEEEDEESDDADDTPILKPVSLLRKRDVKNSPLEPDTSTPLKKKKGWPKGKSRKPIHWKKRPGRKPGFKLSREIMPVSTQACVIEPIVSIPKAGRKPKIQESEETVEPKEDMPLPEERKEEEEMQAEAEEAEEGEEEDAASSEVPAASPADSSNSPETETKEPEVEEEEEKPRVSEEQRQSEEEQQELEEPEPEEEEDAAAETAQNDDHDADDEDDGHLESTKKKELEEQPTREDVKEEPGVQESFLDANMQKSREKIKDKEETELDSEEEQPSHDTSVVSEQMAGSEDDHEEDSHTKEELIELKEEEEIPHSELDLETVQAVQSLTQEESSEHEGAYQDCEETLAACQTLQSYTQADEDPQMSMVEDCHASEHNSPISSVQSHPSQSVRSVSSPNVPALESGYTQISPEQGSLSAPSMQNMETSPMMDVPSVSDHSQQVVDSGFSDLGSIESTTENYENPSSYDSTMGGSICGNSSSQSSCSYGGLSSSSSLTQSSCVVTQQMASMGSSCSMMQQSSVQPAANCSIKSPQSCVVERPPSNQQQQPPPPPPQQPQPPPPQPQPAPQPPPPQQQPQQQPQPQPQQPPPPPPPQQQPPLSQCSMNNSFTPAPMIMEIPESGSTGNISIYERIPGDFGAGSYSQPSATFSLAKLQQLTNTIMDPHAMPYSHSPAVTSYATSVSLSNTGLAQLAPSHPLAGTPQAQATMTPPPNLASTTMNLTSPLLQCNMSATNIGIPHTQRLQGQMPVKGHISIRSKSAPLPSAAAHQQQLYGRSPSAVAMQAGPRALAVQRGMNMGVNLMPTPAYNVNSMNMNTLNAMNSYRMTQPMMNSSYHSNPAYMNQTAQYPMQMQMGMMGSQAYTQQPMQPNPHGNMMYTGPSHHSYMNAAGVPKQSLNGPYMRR

How did the IC50 turn out when COc1ccc2c(c1S(=O)(=O)Nc1noc3cc(Cn4cccn4)nc(OC)c13)OC(C)C2 (stereo not drawn) [Example 66, N-(6-((1H-Pyrazol-1-yl)methyl)-4-methoxyisoxazolo[4,5-c]pyridin-3-yl)-6-methoxy-2-methyl-2,3-dihvdrobenzofuran-7-sulfonamide] was run?
The IC50 was 1.22 nM.

COc1cc2c(cc1S(=O)(=O)Nc1noc3cc(Cn4cccn4)nc(OC)c13)OCCC2 [Example 67, N-(6-((1H-Pyrazol-1-yl)methyl)-4-methoxyisoxazolo[4,5-c]pyridin-3-yl)-6-methoxy-3,4-dihydro-1H-benzopyran-7-sulfonamide] was tested. Which IC50 did it give?
The IC50 was 1.31 nM.

Which IC50 does the source give for COc1ccc2ccoc2c1S(=O)(=O)Nc1noc2cc(Cn3cc(F)cn3)nc(OC)c12 [Example 68, N-(6-((4-Fluoro-1H-pyrazol-1-yl)methyl)-4-methoxyisoxazolo[4,5-c]pyridin-3-yl)-6-methoxvbenzofuran-7-sulfonamide] here?
The IC50 was 2.41 nM.

How did the IC50 turn out when COc1cc2c(ccn2C)cc1S(=O)(=O)Nc1noc2cc(Cn3cccn3)nc(OC)c12 [Example 69, N-(6-((1H-Pyrazol-1-yl)methyl)-4-methoxyisoxazolo[4,5-c]pyridin-3-yl)-6-methoxy-1-methyl-1H-indole-5-sulfonamide] was run?
Its IC50 is 0.87 nM.

COc1cc2c(cc1S(=O)(=O)Nc1noc3cc(Cn4cccn4)nc(OC)c13)CCC2 [Example 70, N-(6-((1H-Pyrazol-1-yl)methyl)-4-methoxyisoxazolo[4,5-c]pyridin-3-yl)-6-methoxy-2,3-dihydro-1H-indene-5-sulfonamide] was tested. Which IC50 did it give?
Its IC50 is 0.85 nM.

For COc1ccc2ccoc2c1S(=O)(=O)Nc1noc2cc(Cn3ccc(C)n3)nc(OC)c12 [Example 71, 6-Methoxy-N-(4-methoxy-6-((3-methyl-1H-pyrazol-1-yl)methyl)isoxazolo[4,5-c]pyridin-3-yl)benzofuran-7-sulfonamide], which IC50 is on record?
The IC50 was 4.49 nM.

For COc1ccc(S(=O)(=O)Nc2noc3cc(Cn4cccn4)nc(OC)c23)c2c1CCO2 [Example 72, N-(6-((1H-Pyrazol-1-yl)methyl)-4-methoxyisoxazolo[4,5-c]pyridin-3-yl)-4-methoxy-2,3-dihydrobenzofuran-7-sulfonamide], which IC50 is on record?
The IC50 was 5.1 nM.

How did the IC50 turn out when COc1ccc2c(c1S(=O)(=O)Nc1noc3cc(Cn4cccn4)nc(OC)c13)OCCO2 [Example 73, N-(6-((1H-Pyrazol-1-yl)methyl)-4-methoxyisoxazolo[4,5-c]pyridin-3-yl)-6-methoxy-2,3-dihydrobenzo[b][1,4]dioxine-5-sulfonamide] was run?
Its IC50 is 0.97 nM.

For COc1ccc2c(c1S(=O)(=O)Nc1noc3cc(Cn4cccn4)nc(OC)c13)OC(C)(C)O2 [Example 74, N-(6-((1H-Pyrazol-1-yl)methyl)-4-methoxyisoxazolo[4,5-c]pyridin-3-yl)-5-methoxy-2,2-dimethyl-1,3-benzodioxolane-4-sulfonamide], which IC50 is on record?
Its IC50 is 1.77 nM.

For COc1ccc2c(c1S(=O)(=O)Nc1noc3cc(Cn4cccn4)nc(OC)c13)CCC2 [Example 77, N-(6-((1H-Pyrazol-1-yl)methyl)-4-methoxyisoxazolo[4,5-c]pyridin-3-yl)-5-methoxy-2,3-dihydro-1H-indene-4-sulfonamide], which IC50 is on record?
The IC50 was 1.91 nM.

Which IC50 does the source give for COc1ccc2occ(S(=O)(=O)Nc3noc4cc(Cn5cccn5)nc(OC)c34)c2c1 [Example 78, N-(6-((1H-Pyrazol-1-yl)methyl)-4-methoxyisoxazolo[4,5-c]pyridin-3-yl)-5-methoxybenzofuran-3-sulfonamide] here?
Its IC50 is 7.97 nM.

With COc1ccc2ccoc2c1S(=O)(=O)Nc1noc2cc(Cn3cc(C)cn3)nc(OC)c12 [Example 83, 6-Methoxy-N-(4-methoxy-6-((4-methyl-1H-pyrazol-1-yl)methyl)isoxazolo[4,5-c]pyridin-3-yl)benzofuran-7-sulfonamide] as the compound, how does the IC50 read?
Its IC50 is 4.12 nM.

Which IC50 does the source give for COc1cc2c(c(S(=O)(=O)Nc3noc4cc(Cn5cccn5)nc(OC)c34)c1)OCCC2 [Example 84, N-(6-((1H-Pyrazol-1-yl)methyl)-4-methoxyisoxazolo[4,5-c]pyridin-3-yl)-6-methoxy-3,4-dihydro-1H-benzopyran-8-sulfonamide] here?
Its IC50 is 1.21 nM.

With COc1c(S(=O)(=O)Nc2noc3cc(Cn4cccn4)nc(OC)c23)ccc2ccoc12 [Example 86, N-(6-((1H-Pyrazol-1-yl)methyl)-4-methoxyisoxazolo[4,5-c]pyridin-3-yl)-7-methoxybenzofuran-6-sulfonamide] as the compound, how does the IC50 read?
Its IC50 is 10 nM.

How did the IC50 turn out when COc1c(S(=O)(=O)Nc2noc3cc(Cn4cccn4)nc(OC)c23)ccc2c1OCO2 [Example 87, N-(6-((1H-Pyrazol-1-yl)methyl)-4-methoxyisoxazolo[4,5-c]pyridin-3-yl)-4-methoxy-1,3-benzodioxole-5-sulfonamide] was run?
Its IC50 is 2.67 nM.

For COc1nc(Cn2cccn2)cc2onc(NS(=O)(=O)c3ccc4c(c3)OC(F)(F)O4)c12 [Example 89, N-(6-((1H-Pyrazol-1-yl)methyl)-4-methoxyisoxazolo[4,5-c]pyridin-3-yl)-2,2-difluoro-1,3-benzodioxole-5-sulfonamide], which IC50 is on record?
Its IC50 is 16.8 nM.

With COc1nc(Cn2cccn2)cc2onc(NS(=O)(=O)c3ccc(C#CC4CC4)c4ccoc34)c12 [Example 90, N-(6-((1H-Pyrazol-1-yl)methyl)-4-methoxyisoxazolo[4,5-c]pyridin-3-yl)-4-(cyclopropylethynyl)benzofuran-7-sulfonamide] as the compound, how does the IC50 read?
Its IC50 is 7.18 nM.

With COc1cc2c(cc1S(=O)(=O)Nc1noc3cc(C(F)(F)n4cccn4)nc(OC)c13)CCCC2 [Example 91, N-(6-(Difluoro(1H-pyrazol-1-yl)methyl)-4-methoxyisoxazolo[4,5-c]pyridin-3-yl)-3-methoxy-5,6,7,8-tetrahydronaphthalene-2-sulfonamide] as the compound, how does the IC50 read?
Its IC50 is 17.6 nM.

For COc1ccc(S(=O)(=O)Nc2noc3cc(Cn4cccn4)nc(OC)c23)c2c1C=CCO2 [Example 94, N-(6-((1H-Pyrazol-1-yl)methyl)-4-methoxyisoxazolo[4,5-c]pyridin-3-yl)-5-methoxy-2H-benzopyran-8-sulfonamide], which IC50 is on record?
Its IC50 is 2.37 nM.

For COc1ccc(S(=O)(=O)Nc2noc3cc(Cn4cccn4)nc(OC)c23)c2c1CCCO2 [Example 95, N-(6-((1H-Pyrazol-1-yl)methyl)-4-methoxyisoxazolo[4,5-c]pyridin-3-yl)-5-methoxy-3,4-dihydro-1H-benzopyran-8-sulfonamide], which IC50 is on record?
The IC50 was 1.63 nM.

With C#Cc1ccc(S(=O)(=O)Nc2noc3cc(Cn4cccn4)nc(OC)c23)c2occc12 [Example 96, N-(6-((1H-pyrazol-1-yl)methyl)-4-methoxyisoxazolo[4,5-c]pyridin-3-yl)-4-ethynyl-benzofuran-7-sulfonamide] as the compound, how does the IC50 read?
Its IC50 is 6.67 nM.

How did the IC50 turn out when COc1cc2c(c(OC)c1S(=O)(=O)Nc1noc3cc(Cn4cccn4)nc(OC)c13)CCO2 [Example 97, N-(6-((1H-pyrazol-1-yl)methyl)-4-methoxyisoxazolo[4,5-c]pyridin-3-yl)-4,6-dimethoxy-2,3-dihydrobenzofuran-5-sulfonamide] was run?
The IC50 was 0.95 nM.

With COc1cc(OC)c(S(=O)(=O)Nc2noc3cc(Cn4cccn4)nc(OC)c23)c2c1CCO2 [Example 98, N-(6-((1H-pyrazol-1-yl)methyl)-4-methoxyisoxazolo[4,5-c]pyridin-3-yl)-4,6-dimethoxy-2,3-dihydrobenzofuran-7-sulfonamide] as the compound, how does the IC50 read?
The IC50 was 0.84 nM.

With COc1cc2c(c(S(=O)(=O)Nc3noc4cc(Cn5cccn5)nc(OC)c34)c1)OC(C)(C)CC2 [Example 99] as the compound, how does the IC50 read?
Its IC50 is 2.79 nM.
